Results published in patent publication US10500226B2, “Alginate compositions and uses thereof” (Hadasit Medical Research Services and Development Ltd., priority 2012, dated 2019).

Tested on: serum ALT (alanine aminotransferase)
Test: Concanavalin A mouse model: serum ALT
Type: in vivo, C57BL/6 (B6) mice
Source text: Injection of the T-cell mitogenic plant lectin concanavalin A (Con A) to non-sensitized mice results in hepatic apoptosis that precedes necrosis. The concanvalin A (Con A) model is a widely utilized mouse model, which mimics many aspects of human autoimmune hepatitis. It induces a massive liver necrosis in mice, simultaneously with lymphocyte infiltration into the liver, high levels of apoptotic hepatocytes and elevated serum alanine aminotransferase (ALT) and aspartate aminotransferase (AST). The liver injury is mediated by natural killer T (NKT) cells. Several apoptosis-related effector molecules, IFN-γ and TNF-α take part in the NKT cell-mediated liver injury. The immune-mediated liver injury which develops in the Con A model is very rapid, taking less than 48 hours. The peak for liver enzymes and pro-inflammtory cytokines is after less than 15 hours, making the model particularly useful for screening anti-inflammatory agents.
Tested solutions were administered intraperitoneally by injection of a volume of 200 μl per mouse or by administration per os of 250 μl per mouse, 1 hour before concanavalin A (Con A) administration. Saline (0.15 M NaCl) served as a negative control test solution.
Con A was dissolved at a concentration of 16 mg/kg in 200 μl of 50 mM Tris (pH 7), with 150 mM NaCl, and 4 mM CaCl2, and injected (at a dose of 0.4 mg/mouse) intravenously into the tail vein of mice. Sera from individual mice were obtained 6, 24 and 48 hours (14 hours in some experiments) after Con A injection. All mice were sacrificed after 48 hours (14 hours in some experiments).
Serum albumin levels after 48 hours were measured by an automatic analyzer.
The solutions were administered intraperitoneally to adult male C57BL mice at a dose of 200 μl per mouse. One hour later, the mice were challenged with an intravenous injection of concanavalin A (Con A), as described hereinabove. […] Each treatment group contained 4-5 mice. Serum levels of ALT, albumin, and the pro-inflammatory cytokines IL-6 and interferon-γ (IFNγ) were determined as described hereinabove.

C[C@@H]1C[C@H]2[C@@H]3CCC4=CC(=O)C=C[C@]4(C)[C@@]3(F)[C@@H](O)C[C@]2(C)[C@@]1(O)C(=O)CO [Dexamethasone]
serum ALT levels (2% solutions i.p., 14 hours after Con A administration): 203±14 units/liter | Serum levels of ALT (Table 3, 200 μl i.p. 1 hour before Con A (dexamethasone per os), 6 hours after Con A): 146 ± 50 units/liter | Serum levels of ALT (Table 3, 200 μl i.p. 1 hour before Con A (dexamethasone per os), 24 hours after Con A): 162 ± 50 units/liter | Serum levels of ALT (Table 3, 200 μl i.p. 1 hour before Con A (dexamethasone per os), 48 hours after Con A): 69 ± 19 units/liter | Serum levels of ALT (Table 4 (hyaluronan comparison), i.p. before Con A, 6 hours after Con A): 83 ± 21 units/liter | Serum levels of ALT (Table 4 (hyaluronan comparison), i.p. before Con A, 24 hours after Con A): 68 ± 4 units/liter | Serum levels of ALT (Table 4 (hyaluronan comparison), i.p. before Con A, 48 hours after Con A): 76 ± 23 units/liter | Serum levels of ALT (Table 5 (biotinylated alginate, 2%), before Con A, 6 hours after Con A): 74 ± 5 units/liter | Serum levels of ALT (Table 5 (biotinylated alginate, 2%), before Con A, 24 hours after Con A): 62 ± 14 units/liter | Serum levels of ALT (Table 5 (biotinylated alginate, 2%), before Con A, 48 hours after Con A): 65 ± 16 units/liter | Serum levels of ALT (Table 6 (γ-irradiated alginate comparison), 6 hours after Con A): 28 ± 10 units/liter | Serum levels of ALT (Table 6 (γ-irradiated alginate comparison), 24 hours after Con A): 126 ± 37 units/liter | Serum levels of ALT (Table 6 (γ-irradiated alginate comparison), 48 hours after Con A): 68 ± 7 units/liter | Serum levels of ALT (Table 7, per os 250 μl 1 hour before Con A, 6 hours after Con A): 46 ± 6 units/liter | Serum levels of ALT (Table 7, per os 250 μl 1 hour before Con A, 24 hours after Con A): 65 ± 10 units/liter | Serum levels of ALT (Table 7, per os 250 μl 1 hour before Con A, 48 hours after Con A): 139 ± 26 units/liter | Serum levels of ALT (Table 8, per os, repeat with other alginates, 6 hours after Con A): 33 ± 12 units/liter | Serum levels of ALT (Table 8, per os, repeat with other alginates, 24 hours after Con A): 37 ± 10 units/liter | Serum levels of ALT (Table 8, per os, repeat with other alginates, 48 hours after Con A): 31 ± 5 units/liter
